Non-standard residues stand in square brackets, D forms with d. Residues, ends and D or L forms follow the SMILES beside them. *: point of attachment. FITC = O=C1OC2(c3ccc(O)cc3Oc3cc(O)ccc32)c2ccc(NC(=S)*)cc21; Phe(4-Me) = Cc1ccc(C[C@H](N)C(=O)O)cc1
How the values were obtained:
Assay in all cases: BRET binding of FITC-VPM-p15
Rluc-ADGRG2-ΔGPS-β C614A = biological target: T1, Rluc-ADGRG2-ΔGPS-β C614A (Mus musculus, UniProt Q8CJ12, C628A); conditions: mutant C614A
T1 construct: the entire ECD (including the entire GPS motif) was removed (ADGRG2-ΔGPS-β); expressed in transfected cells; host or cells: HEK293
T1 sequence (Q8CJ12 618-1009 C628A limits assumed): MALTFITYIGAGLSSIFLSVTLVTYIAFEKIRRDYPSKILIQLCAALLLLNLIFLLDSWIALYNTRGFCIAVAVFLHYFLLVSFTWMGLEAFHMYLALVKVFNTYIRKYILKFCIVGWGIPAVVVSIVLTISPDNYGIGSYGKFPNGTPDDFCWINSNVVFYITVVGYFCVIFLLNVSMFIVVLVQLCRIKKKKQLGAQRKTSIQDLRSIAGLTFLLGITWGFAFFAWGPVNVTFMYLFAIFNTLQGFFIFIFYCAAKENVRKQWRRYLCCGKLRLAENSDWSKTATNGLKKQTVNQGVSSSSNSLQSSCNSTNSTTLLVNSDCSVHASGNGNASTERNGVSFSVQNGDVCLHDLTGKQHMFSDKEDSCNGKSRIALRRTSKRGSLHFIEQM
Protocol: (§1) The binding capacities of ADGRG2 WT or its mutants for VPM-p15 were determined by BRET assay, which has been used in previous studies ([27], [28], [29]). We fused the N terminus of ADGRG2 with a Rluc fragment and coupled FITC to the C terminus of VPM-p15 to facilitate BRET measurement. We stimulated the HEK293 cells transfected with Rluc-ADGRG2-ΔGPS-β wildtype (WT) or mutants by increasing the concentration of FITC-conjugated VPM-p15, and their binding abilities were determined by fitting the data with the saturation curves.
(§2) In the detection of binding capacities of ADGRG2 WT or its mutants for VPM-p15, HEK293 cells were transfected with Rluc-ADGRG2-ΔGPS-β or mutants. Transfected cells were stimulated by increasing the concentration of FITC-conjugated VPM-p15. Binding capacities were determined by BRET, EC50 values of ADGRG2 WT and its mutants for binding VPM-p15 were calculated by GraphPad, and data were normalized by EC50 of WT.

Rluc-ADGRG2-ΔGPS-β F671A = biological target: T2, Rluc-ADGRG2-ΔGPS-β F671A (Mus musculus, UniProt Q8CJ12, F685A); conditions: mutant F671A
T2 construct: the entire ECD (including the entire GPS motif) was removed (ADGRG2-ΔGPS-β); expressed in transfected cells; host or cells: HEK293
T2 sequence (Q8CJ12 618-1009 F685A limits assumed): as the sequence (Q8CJ12 618-1009 C628A limits assumed) above, with A11C, F68A counted along it
Protocol: as §1, §2

Rluc-ADGRG2-ΔGPS-β F764A = biological target: T3, Rluc-ADGRG2-ΔGPS-β F764A (Mus musculus, UniProt Q8CJ12, F778A); conditions: mutant F764A
T3 construct: the entire ECD (including the entire GPS motif) was removed (ADGRG2-ΔGPS-β); expressed in transfected cells; host or cells: HEK293
T3 sequence (Q8CJ12 618-1009 F778A limits assumed): as the sequence (Q8CJ12 618-1009 C628A limits assumed) above, with A11C, F161A counted along it
Protocol: as §1, §2

Rluc-ADGRG2-ΔGPS-β F772A = biological target: T4, Rluc-ADGRG2-ΔGPS-β F772A (Mus musculus, UniProt Q8CJ12, F786A); conditions: mutant F772A
T4 construct: expressed in transfected cells; host or cells: HEK293
T4 sequence (Q8CJ12 614-1009 F786A): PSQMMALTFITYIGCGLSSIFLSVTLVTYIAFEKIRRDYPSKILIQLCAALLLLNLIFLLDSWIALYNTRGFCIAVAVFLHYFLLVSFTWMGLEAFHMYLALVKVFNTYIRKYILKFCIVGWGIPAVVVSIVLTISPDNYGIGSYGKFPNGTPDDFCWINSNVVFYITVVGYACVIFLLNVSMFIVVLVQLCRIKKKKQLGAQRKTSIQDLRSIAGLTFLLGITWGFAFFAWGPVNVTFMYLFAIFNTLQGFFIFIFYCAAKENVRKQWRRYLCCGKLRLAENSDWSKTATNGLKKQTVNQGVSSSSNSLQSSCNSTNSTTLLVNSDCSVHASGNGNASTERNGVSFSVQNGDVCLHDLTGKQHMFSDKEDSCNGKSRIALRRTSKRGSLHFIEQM
Protocol: as §1, §2

Rluc-ADGRG2-ΔGPS-β F826A = biological target: T5, Rluc-ADGRG2-ΔGPS-β F826A (Mus musculus, UniProt Q8CJ12, F840A); conditions: mutant F826A
T5 construct: expressed in transfected cells; host or cells: HEK293
T5 sequence (Q8CJ12 614-1009 F840A): as the sequence (Q8CJ12 614-1009 F786A) above, with A173F, F227A counted along it
Protocol: as §1, §2

Rluc-ADGRG2-ΔGPS-β F829A = biological target: T6, Rluc-ADGRG2-ΔGPS-β F829A (Mus musculus, UniProt Q8CJ12, F843A); conditions: mutant F829A
T6 construct: expressed in transfected cells; host or cells: HEK293
T6 sequence (Q8CJ12 614-1009 F843A): as the sequence (Q8CJ12 614-1009 F786A) above, with A173F, F230A counted along it
Protocol: as §1, §2

Rluc-ADGRG2-ΔGPS-β F838A = biological target: T7, Rluc-ADGRG2-ΔGPS-β F838A (Mus musculus, UniProt Q8CJ12, F852A); conditions: mutant F838A
T7 construct: expressed in transfected cells; host or cells: HEK293
T7 sequence (Q8CJ12 614-1009 F852A): as the sequence (Q8CJ12 614-1009 F786A) above, with A173F, F239A counted along it
Protocol: as §1, §2

Rluc-ADGRG2-ΔGPS-β F845A = biological target: T8, Rluc-ADGRG2-ΔGPS-β F845A (Mus musculus, UniProt Q8CJ12, F859A); conditions: mutant F845A
T8 construct: expressed in transfected cells; host or cells: HEK293
T8 sequence (Q8CJ12 614-1009 F859A): as the sequence (Q8CJ12 614-1009 F786A) above, with A173F, F246A counted along it
Protocol: as §1, §2

Rluc-ADGRG2-ΔGPS-β L683A = biological target: T9, Rluc-ADGRG2-ΔGPS-β L683A (Mus musculus, UniProt Q8CJ12, L697A); conditions: mutant L683A
T9 construct: the entire ECD (including the entire GPS motif) was removed (ADGRG2-ΔGPS-β); expressed in transfected cells; host or cells: HEK293
T9 sequence (Q8CJ12 618-1009 L697A limits assumed): as the sequence (Q8CJ12 618-1009 C628A limits assumed) above, with A11C, L80A counted along it
Protocol: as §1, §2

Rluc-ADGRG2-ΔGPS-β N667A = biological target: T10, Rluc-ADGRG2-ΔGPS-β N667A (Mus musculus, UniProt Q8CJ12, N681A); conditions: mutant N667A
T10 construct: the entire ECD (including the entire GPS motif) was removed (ADGRG2-ΔGPS-β); expressed in transfected cells; host or cells: HEK293
T10 sequence (Q8CJ12 618-1009 N681A limits assumed): as the sequence (Q8CJ12 618-1009 C628A limits assumed) above, with A11C, N64A counted along it
Protocol: as §1, §2

Rluc-ADGRG2-ΔGPS-β S760A = biological target: T11, Rluc-ADGRG2-ΔGPS-β S760A (Mus musculus, UniProt Q8CJ12, S774A); conditions: mutant S760A
T11 construct: the entire ECD (including the entire GPS motif) was removed (ADGRG2-ΔGPS-β); expressed in transfected cells; host or cells: HEK293
T11 sequence (Q8CJ12 618-1009 S774A limits assumed): as the sequence (Q8CJ12 618-1009 C628A limits assumed) above, with A11C, S157A counted along it
Protocol: as §1, §2

Rluc-ADGRG2-ΔGPS-β V769A = biological target: T12, Rluc-ADGRG2-ΔGPS-β V769A (Mus musculus, UniProt Q8CJ12, V783A); conditions: mutant V769A
T12 construct: expressed in transfected cells; host or cells: HEK293
T12 sequence (Q8CJ12 614-1009 V783A): as the sequence (Q8CJ12 614-1009 F786A) above, with V170A, A173F counted along it
Protocol: as §1, §2

Rluc-ADGRG2-ΔGPS-β V774A = biological target: T13, Rluc-ADGRG2-ΔGPS-β V774A (Mus musculus, UniProt Q8CJ12, V788A); conditions: mutant V774A
T13 construct: expressed in transfected cells; host or cells: HEK293
T13 sequence (Q8CJ12 614-1009 V788A): as the sequence (Q8CJ12 614-1009 F786A) above, with A173F, V175A counted along it
Protocol: as §1, §2

Rluc-ADGRG2-ΔGPS-β V836A = biological target: T14, Rluc-ADGRG2-ΔGPS-β V836A (Mus musculus, UniProt Q8CJ12, V850A); conditions: mutant V836A
T14 construct: expressed in transfected cells; host or cells: HEK293
T14 sequence (Q8CJ12 614-1009 V850A): as the sequence (Q8CJ12 614-1009 F786A) above, with A173F, V237A counted along it
Protocol: as §1, §2

Rluc-ADGRG2-ΔGPS-β W662A = biological target: T15, Rluc-ADGRG2-ΔGPS-β W662A (Mus musculus, UniProt Q8CJ12, W676A); conditions: mutant W662A
T15 construct: the entire ECD (including the entire GPS motif) was removed (ADGRG2-ΔGPS-β); expressed in transfected cells; host or cells: HEK293
T15 sequence (Q8CJ12 618-1009 W676A limits assumed): as the sequence (Q8CJ12 618-1009 C628A limits assumed) above, with A11C, W59A counted along it
Protocol: as §1, §2

Rluc-ADGRG2-ΔGPS-β Y611A = biological target: T16, Rluc-ADGRG2-ΔGPS-β Y611A (Mus musculus, UniProt Q8CJ12, Y625A); conditions: mutant Y611A
T16 construct: the entire ECD (including the entire GPS motif) was removed (ADGRG2-ΔGPS-β); expressed in transfected cells; host or cells: HEK293
T16 sequence (Q8CJ12 618-1009 Y625A limits assumed): as the sequence (Q8CJ12 618-1009 C628A limits assumed) above, with Y8A, A11C counted along it
Protocol: as §1, §2

Rluc-ADGRG2-ΔGPS-β Y666A = biological target: T17, Rluc-ADGRG2-ΔGPS-β Y666A (Mus musculus, UniProt Q8CJ12, Y680A); conditions: mutant Y666A
T17 construct: the entire ECD (including the entire GPS motif) was removed (ADGRG2-ΔGPS-β); expressed in transfected cells; host or cells: HEK293
T17 sequence (Q8CJ12 618-1009 Y680A limits assumed): as the sequence (Q8CJ12 618-1009 C628A limits assumed) above, with A11C, Y63A counted along it
Protocol: as §1, §2

Rluc-ADGRG2-ΔGPS-β Y765A = biological target: T18, Rluc-ADGRG2-ΔGPS-β Y765A (Mus musculus, UniProt Q8CJ12, Y779A); conditions: mutant Y765A
T18 construct: the entire ECD (including the entire GPS motif) was removed (ADGRG2-ΔGPS-β); expressed in transfected cells; host or cells: HEK293
T18 sequence (Q8CJ12 618-1009 Y779A limits assumed): as the sequence (Q8CJ12 618-1009 C628A limits assumed) above, with A11C, Y162A counted along it
Protocol: as §1, §2

[1] = Kd(mutated ADGRG2-ΔGPS-β)/Kd(WT)

## CC[C@H](C)[C@H](NC(=O)CNC(=O)[C@H](Cc1ccc(C)cc1)NC(=O)[C@H](CO)NC(=O)[C@@H](N)C(C)C)C(=O)N[C@@H](CC(C)C)C(=O)N[C@@H](CC(C)C)C(=O)N[C@@H](CC(=O)O)C(=O)N[C@@H](CC(C)C)C(=O)N[C@@H](CO)C(=O)N[C@@H](CCCNC(=N)N)C(=O)N[C@H](C(=O)N[C@@H](CO)C(=O)N[C@@H](CC(C)C)C(=O)N1CCC[C@H]1C(=O)N[C@@H](CCCCNC(=S)Nc1ccc2c(c1)C(=O)OC21c2ccc(O)cc2Oc2cc(O)ccc21)C(=O)O)[C@@H](C)O [FITC-VPM-p15] (H-VS[Phe(4-Me)]GILLDLSRTSLPK(FITC)-OH; N-terminus and C-terminus assumed)
Rluc-ADGRG2-ΔGPS-β C614A; [1]
  Fmut: 1.382
Rluc-ADGRG2-ΔGPS-β C614A; binding Bmax (BRET)
  Bmax: 0.7934±0.0241
Rluc-ADGRG2-ΔGPS-β F671A; [1]
  Fmut: 0.940
Rluc-ADGRG2-ΔGPS-β F671A; binding Bmax (BRET)
  Bmax: 0.833±0.050
Rluc-ADGRG2-ΔGPS-β F764A; [1]
  Fmut: 1.183
Rluc-ADGRG2-ΔGPS-β F764A; binding Bmax (BRET)
  Bmax: 0.814±0.039
Rluc-ADGRG2-ΔGPS-β F772A; [1]
  Fmut: 0.903
Rluc-ADGRG2-ΔGPS-β F772A; binding Bmax (BRET)
  Bmax: 0.795±0.021
Rluc-ADGRG2-ΔGPS-β F826A; [1]
  Fmut: 1.248
Rluc-ADGRG2-ΔGPS-β F826A; binding Bmax (BRET)
  Bmax: 0.734±0.035
Rluc-ADGRG2-ΔGPS-β F829A; [1]
  Fmut: 0.344
Rluc-ADGRG2-ΔGPS-β F829A; binding Bmax (BRET)
  Bmax: 0.817±0.050
Rluc-ADGRG2-ΔGPS-β F838A; [1]
  Fmut: 0.819
Rluc-ADGRG2-ΔGPS-β F838A; binding Bmax (BRET)
  Bmax: 0.793±0.022
Rluc-ADGRG2-ΔGPS-β F845A; [1]
  Fmut: 1.452
Rluc-ADGRG2-ΔGPS-β F845A; binding Bmax (BRET)
  Bmax: 0.749±0.071
Rluc-ADGRG2-ΔGPS-β L683A; [1]
  Fmut: 1.240
Rluc-ADGRG2-ΔGPS-β L683A; binding Bmax (BRET)
  Bmax: 0.7887±0.022
Rluc-ADGRG2-ΔGPS-β N667A; [1]
  Fmut: 0.975
Rluc-ADGRG2-ΔGPS-β N667A; binding Bmax (BRET)
  Bmax: 0.803±0.028
Rluc-ADGRG2-ΔGPS-β S760A; [1]
  Fmut: 1.444
Rluc-ADGRG2-ΔGPS-β S760A; binding Bmax (BRET)
  Bmax: 0.716±0.011
Rluc-ADGRG2-ΔGPS-β V769A; [1]
  Fmut: 1.145
Rluc-ADGRG2-ΔGPS-β V769A; binding Bmax (BRET)
  Bmax: 0.763±0.074
Rluc-ADGRG2-ΔGPS-β V774A; [1]
  Fmut: 1.149
Rluc-ADGRG2-ΔGPS-β V774A; binding Bmax (BRET)
  Bmax: 0.820±0.032
Rluc-ADGRG2-ΔGPS-β V836A; [1]
  Fmut: 1.315
Rluc-ADGRG2-ΔGPS-β V836A; binding Bmax (BRET)
  Bmax: 0.775±0.030
Rluc-ADGRG2-ΔGPS-β W662A; [1]
  Fmut: 1.128
Rluc-ADGRG2-ΔGPS-β W662A; binding Bmax (BRET)
  Bmax: 0.808±0.047
Rluc-ADGRG2-ΔGPS-β Y611A; [1]
  Fmut: 0.761
Rluc-ADGRG2-ΔGPS-β Y611A; binding Bmax (BRET)
  Bmax: 0.7912±0.020
Rluc-ADGRG2-ΔGPS-β Y666A; [1]
  Fmut: 0.895
Rluc-ADGRG2-ΔGPS-β Y666A; binding Bmax (BRET)
  Bmax: 0.809±0.029
Rluc-ADGRG2-ΔGPS-β Y765A; [1]
  Fmut: 0.967
Rluc-ADGRG2-ΔGPS-β Y765A; binding Bmax (BRET)
  Bmax: 0.796±0.013

Reference: publication PMC7948503, “Optimization of a peptide ligand for the adhesion GPCR ADGRG2 provides a potent tool to explore receptor biology” (The Journal of Biological Chemistry, 2020)
